US20230233545A1, “TREATMENT OF ATRIAL DYSFUNCTION” (MyoKardia, Inc., priority 2020, published 2023)
Marks after values point to notes of the source that are not given here.

Columns and labels:
[1] = target: T1, left ventricular (LV) myofibrils (Sus scrofa, UniProt P79293); experiment: Steady-state ATPase (ATP turnover rate), LV myofibrils; type: biochemical, Yucatan mini-pig
T1 construct: from tissue; host or cells: left ventricle of Yucatan mini-pig heart
Experimental: The ability of Compound I to increase myocardial ATP turnover rates selectively was evaluated using both left atrial (LA) and left ventricular (LV) myofibrils prepared from Yucatan mini-pig hearts, as well as subfragment-1 (51) myosins from cardiac (recombinant human), skeletal (rabbit psoas) and smooth (chicken gizzard) muscles. Pig hearts were harvested, and the left atria/ventricles were freshly excised, dissected, frozen in liquid nitrogen and stored at −80° C. Myofibrils and S1 myosins were prepared as described in Kawas et al., J Biol Chem. (2017) 292(40:16571-7. Both atrial (n=4 hearts, 2 replicates each) and ventricular (n=3 hearts, 2 replicates each) myofibrils were assayed at a constant concentration of 1.0 mg/mL (at Ca^2+ sensitivity [pCa] 6.0). Rabbit skeletal (0.2 μM, n=8), chicken gizzard (0.5 n=10) and recombinant human cardiac (0.5 n=10) S1 myosin were assayed with a constant concentration of actin (14 μM).
Steady-state ATPase measurements at varying concentrations of Compound I (0-50 μM, in 2% DMSO) were conducted using a coupled enzyme system utilizing pyruvate kinase and lactate dehydrogenase. This enzyme system couples the formation of ADP to the oxidation of NADH leading to an absorbance change at 340 nm. The buffering system used in all experiments was 12 mM PIPES, 2 mM MgCl2 and 1 mM dithiothreitol (DTT) at pH 6.8 (PM12 buffer). All measurements were carried out at 25° C. using a plate reader (SpectraMax; Molecular Devices, LLC, CA, USA) to monitor the change in absorbance as a function of time; data were normalized to a per-second scale as described in Green et al., Science (2016) 351(6273):617-21. Data are presented as means (standard deviation [SD]) in text or as mean±standard error of the mean (SEM) in figures; half maximal effective concentration (EC50) values (and 95% confidence intervals [CIs]) were calculated using a four-parameter-fit model (GraphPad Prism, GraphPad Software Inc., CA, USA).

[2] = test system: patients with stable HFrEF; experiment: Multiple-ascending dose trial, TTE left atrial parameters; type: in vivo, human
Text: This example describes a study to establish the effect on left atrial dimensions and function of single- and multiple-ascending oral doses of Compound I in ambulatory patients with stable heart failure with reduced ejection fraction (HFrEF). Key eligibility criteria included stable HFrEF of ischemic or nonischemic origin, treated with guideline-directed medical therapy (EF initial requirement during Screening was 20 to 45%, and was later changed by amendment to 15 to 35%). Subjects with active ischemia or severe or valvular heart disease were excluded.
The clinical trial enrolled patients who were 18-80 years of age with a clinical diagnosis of stable chronic heart failure with an LV ejection fraction (LVEF) on echocardiography of 45% or less (subsequently amended to ≤35%), treated with guideline-directed medical therapy, and with good quality echocardiogram images. […] Patients with current or recent AF were also excluded. Detailed inclusion and exclusion criteria are shown below.
This was a randomized, parallel-group, DB, placebo-controlled, adaptive design, sequential ascending (oral) multiple-dose study in stable patients with heart failure. Four MAD Cohorts (A, B, C, D) were enrolled (FIG. 7B). An SRC reviewed results from each cohort and determined the dose and confirmed initial sample size for the subsequent cohort. Additionally, the first 3 patients in each cohort had LVEF>25%; the SRC reviewed preliminary safety data from these patients and decided whether to open cohort enrollment to patients with LVEF<25%.
In Cohort A, Compound I 75 mg twice daily (BID) or matching placebo was administered after a 2-hour fast, and food was not allowed for the following 2 hours. In Cohorts B, C and D, patients received Compound I 50, 75 and 100 mg BID, respectively, with food (Table 5).
Patients were admitted to a clinical research unit for 11 days and underwent 3 consecutive study periods: (1) an initial single-blind placebo run-in period of 2 days (Days 1-2); (2) a randomized (1:3) double-blind treatment period in which patients received 7 days of placebo or Compound I, administered orally twice daily (from Day 3 until Day 9); (3) a follow-up period with patients discharged from the unit on D11, and a final follow-up clinic visit conducted on Day 16. During the 11-day confinement, patients were under continuous supervision.
During the study, multiple evaluations were performed that included: serial TTE assessments (11-14 TTEs per patient on Days 1, 2, 3, 4, 7, 9, 10 and 11); PK sampling (PK sample collected concomitantly with every post-randomization echocardiogram); ECGs (on Days 2, 3, 4, 7, 9, 10, 11 and 16); troponin (collected concomitantly with every post-randomization ECG); and safety laboratory assessments. Confined patients underwent continuous telemetry. Holter monitoring was performed in all patients at baseline (Days 1-2) and at the end of double-blind treatment (Days 7-9). Vital signs were collected daily.

[3] = plasma concentrations ≥2000 ng/mL, 'up to', p<0.01

T1 sequence (P79293 whole entry): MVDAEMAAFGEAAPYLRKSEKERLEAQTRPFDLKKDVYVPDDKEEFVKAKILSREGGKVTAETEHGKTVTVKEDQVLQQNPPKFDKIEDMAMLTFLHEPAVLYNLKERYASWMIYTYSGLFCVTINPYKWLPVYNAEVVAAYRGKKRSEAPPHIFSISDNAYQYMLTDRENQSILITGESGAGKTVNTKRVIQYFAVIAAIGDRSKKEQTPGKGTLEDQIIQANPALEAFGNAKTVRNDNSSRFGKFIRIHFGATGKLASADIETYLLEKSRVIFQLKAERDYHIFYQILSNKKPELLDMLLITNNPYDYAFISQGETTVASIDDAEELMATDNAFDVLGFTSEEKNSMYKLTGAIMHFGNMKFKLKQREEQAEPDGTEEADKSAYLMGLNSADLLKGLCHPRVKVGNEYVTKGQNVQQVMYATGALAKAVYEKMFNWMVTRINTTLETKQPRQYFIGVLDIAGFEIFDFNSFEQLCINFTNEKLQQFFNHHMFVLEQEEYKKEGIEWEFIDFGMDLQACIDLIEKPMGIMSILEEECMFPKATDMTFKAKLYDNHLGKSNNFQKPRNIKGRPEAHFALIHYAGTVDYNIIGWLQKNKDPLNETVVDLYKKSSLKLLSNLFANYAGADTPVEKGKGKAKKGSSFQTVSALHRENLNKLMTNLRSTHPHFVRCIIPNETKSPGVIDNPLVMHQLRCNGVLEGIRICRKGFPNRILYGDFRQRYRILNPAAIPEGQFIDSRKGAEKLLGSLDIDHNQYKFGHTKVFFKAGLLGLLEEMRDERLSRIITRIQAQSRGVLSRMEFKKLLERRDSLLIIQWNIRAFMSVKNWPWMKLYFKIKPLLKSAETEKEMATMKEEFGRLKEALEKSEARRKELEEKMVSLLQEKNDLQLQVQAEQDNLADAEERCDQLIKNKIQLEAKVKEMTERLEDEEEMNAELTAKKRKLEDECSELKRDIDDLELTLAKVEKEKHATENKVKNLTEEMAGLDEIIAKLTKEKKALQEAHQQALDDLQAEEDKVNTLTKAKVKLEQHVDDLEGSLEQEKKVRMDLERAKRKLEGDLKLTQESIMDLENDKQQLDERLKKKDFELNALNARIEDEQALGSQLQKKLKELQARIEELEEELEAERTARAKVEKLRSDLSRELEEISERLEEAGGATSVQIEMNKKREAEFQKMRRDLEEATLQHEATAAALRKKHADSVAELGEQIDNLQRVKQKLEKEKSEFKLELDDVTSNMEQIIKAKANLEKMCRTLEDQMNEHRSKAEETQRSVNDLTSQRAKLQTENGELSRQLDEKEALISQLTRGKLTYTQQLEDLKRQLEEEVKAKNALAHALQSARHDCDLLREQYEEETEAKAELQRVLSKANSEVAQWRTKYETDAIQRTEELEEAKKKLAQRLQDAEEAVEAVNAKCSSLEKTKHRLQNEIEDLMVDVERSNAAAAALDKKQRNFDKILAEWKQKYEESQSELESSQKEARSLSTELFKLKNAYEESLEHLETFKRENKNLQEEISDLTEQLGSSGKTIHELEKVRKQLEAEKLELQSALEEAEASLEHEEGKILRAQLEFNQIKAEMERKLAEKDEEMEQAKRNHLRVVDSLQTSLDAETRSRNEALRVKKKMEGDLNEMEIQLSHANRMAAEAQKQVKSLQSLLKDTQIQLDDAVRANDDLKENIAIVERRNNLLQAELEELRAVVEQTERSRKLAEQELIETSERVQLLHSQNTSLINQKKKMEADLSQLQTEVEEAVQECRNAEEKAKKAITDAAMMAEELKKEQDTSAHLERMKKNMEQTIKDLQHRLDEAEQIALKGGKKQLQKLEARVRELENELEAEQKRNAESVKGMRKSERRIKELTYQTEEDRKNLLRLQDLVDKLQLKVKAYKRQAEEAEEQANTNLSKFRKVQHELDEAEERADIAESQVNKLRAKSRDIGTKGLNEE

Cn1cc(S(=O)(=O)[C@@](C)(F)C2CCN(C(=O)Nc3ccon3)CC2)c(C(F)F)n1 [Compound I, (R)-4-(1-((3-(difluoromethyl)-1-methyl-1H-pyrazol-4-yl)sulfonyl)-1-fluoroethyl)-N-(isoxazol-3-yl)piperidine-1-carboxamide]
increase in ATPase, LV porcine myofibrils ([1]; at 3 μM): 85% | increase in ATPase turnover rate, ventricular myofibrils ([1]; at 50 μM, SD ±0.3): 3.0 fold | AC50 ([1]; pCa 6.0, 25° C., 95% CI 3.7-27.5, read-out: half maximal active concentration [AC50], ATPase turnover rate, ventricular myofibrils): 6 µM | safety and tolerability of drug dosages and exposures tested ([2]; current studies): safe and are well tolerated | LAminVi, mean change from baseline (placebo-corrected) ([2]; plasma concentration 2000-<3500 ng/mL (medium), SE 0.6, p<0.01): −2.1 mL/m^2 | LAEF, mean change from baseline (placebo-corrected) ([2]; plasma concentration 2000-<3500 ng/mL (n = 26, medium), SE 1.3, p<0.05): 3.3% | LAmaxVi, mean change from baseline (placebo-corrected) ([2]; plasma concentration 2000-<3500 ng/mL, SE 0.7): −1.1 mL/m^2 | MR jet area/LA area ratio, mean change from baseline (placebo-corrected) ([2]; plasma concentration 2000-<3500 ng/mL, SE 1.3): −0.6% | LAEF, mean change from baseline (placebo-corrected) ([2]; plasma concentration <2000 ng/mL (n = 30), LS mean difference, SE 1.2, baseline 41 (8)): 2.1% | LAminVi, mean change from baseline (placebo-corrected) ([2]; plasma concentration <2000 ng/mL, SE 0.6, baseline 17 (7), p<0.01): −1.8** mL/m^2 | LAmaxVi, mean change from baseline (placebo-corrected) ([2]; plasma concentration <2000 ng/mL, SE 0.6, baseline 28 (9)): −1.2 mL/m^2 | MR jet area/LA area ratio, mean change from baseline (placebo-corrected) ([2]; plasma concentration <2000 ng/mL, SE 1.2, baseline 8.7 (10.5)): 0.3% | LAFI, mean change from baseline (placebo-corrected) ([2]; plasma concentration <2000 ng/mL, SE 1.5, baseline 26 (13)): 2.6 | LAminVi, mean change from baseline (placebo-corrected) ([2]; plasma concentration ≥3500 ng/mL (high), SE 0.7, p<0.01): −2.4 mL/m^2 | LAEF, mean change from baseline (placebo-corrected) ([2]; plasma concentration ≥3500 ng/mL (n = 13, high), SE 1.6, p<0.05): 3.6% | LAmaxVi, mean change from baseline (placebo-corrected) ([2]; plasma concentration ≥3500 ng/mL, SE 0.8): −1.3 mL/m^2 | MR jet area/LA area ratio, mean change from baseline (placebo-corrected) ([2]; plasma concentration ≥3500 ng/mL, SE 1.6, p<0.05): −4.2* % | decrease in LA minimal volume index compared with placebo [2, 3]: up to −2.4 mL/m2 | increase in LA function index compared with placebo [2, 3]: up to 6.1
